The source of these data is patent publication US10583137B2, “Triazole DAGLα inhibitors” (THE SCRIPPS RESEARCH INSTITUTE, priority 2015, dated 2020).

One may read the IC50 as the midpoint of a concentration-inhibition curve.

The target in assay [1] is DAGLα (hDAGLα-FLAG) (Homo sapiens (Human), UniProt Q9Y4D2). Briefly: competitive ABPP, membrane proteome of transfected HEK293T cells. The note with it: for inhibition at 0.0032 µM: 3.2 nM, read-out: DAGLα % inh. 3.2 nM; for IC50: read-out: DAGLα IC50. It is filed as biochemical. In outline:
(§1)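 HEK293T membrane proteome (1 mg/ml) expressing FLAG-tagged human DAGLα or DAGLβ, treated 30 min at room temperature with compound, then 30 min with HT-01 or FP-Rh probe (1 μM). Bands separated by SDS-PAGE were normalized to DMSO for IC50 by variable-slope fit.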

Assay [2] deals with DAGLβ (hDAGLβ-FLAG) (Homo sapiens (Human), UniProt Q8NCG7). The assay is described as above. It is filed as biochemical. The note with it: for inhibition at 0.0032 µM: read-out: DAGLβ % inh. 3.2 nM; for IC50: read-out: DAGLβ IC50. In short, it runs like this: as §1
Chain of DAGLβ (hDAGLβ-FLAG) (Q8NCG7 whole entry): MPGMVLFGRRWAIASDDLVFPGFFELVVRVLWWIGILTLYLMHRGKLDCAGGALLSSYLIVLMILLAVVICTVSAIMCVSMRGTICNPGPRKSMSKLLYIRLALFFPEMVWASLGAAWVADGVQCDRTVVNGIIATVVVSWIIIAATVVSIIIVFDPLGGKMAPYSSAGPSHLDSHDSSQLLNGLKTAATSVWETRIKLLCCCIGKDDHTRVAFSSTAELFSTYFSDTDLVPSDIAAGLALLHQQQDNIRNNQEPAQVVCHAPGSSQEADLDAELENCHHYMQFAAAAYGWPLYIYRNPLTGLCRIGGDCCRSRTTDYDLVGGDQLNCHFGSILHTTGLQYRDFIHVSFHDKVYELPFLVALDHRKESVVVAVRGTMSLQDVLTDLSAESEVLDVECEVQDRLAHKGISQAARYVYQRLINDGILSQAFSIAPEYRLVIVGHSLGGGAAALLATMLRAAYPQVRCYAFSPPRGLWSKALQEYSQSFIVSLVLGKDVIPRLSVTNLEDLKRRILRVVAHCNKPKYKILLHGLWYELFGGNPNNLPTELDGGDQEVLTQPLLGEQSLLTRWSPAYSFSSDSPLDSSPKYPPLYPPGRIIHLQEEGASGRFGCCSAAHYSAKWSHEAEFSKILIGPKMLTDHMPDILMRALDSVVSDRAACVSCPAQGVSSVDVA

Chain of DAGLα (hDAGLα-FLAG) (Q9Y4D2 whole entry): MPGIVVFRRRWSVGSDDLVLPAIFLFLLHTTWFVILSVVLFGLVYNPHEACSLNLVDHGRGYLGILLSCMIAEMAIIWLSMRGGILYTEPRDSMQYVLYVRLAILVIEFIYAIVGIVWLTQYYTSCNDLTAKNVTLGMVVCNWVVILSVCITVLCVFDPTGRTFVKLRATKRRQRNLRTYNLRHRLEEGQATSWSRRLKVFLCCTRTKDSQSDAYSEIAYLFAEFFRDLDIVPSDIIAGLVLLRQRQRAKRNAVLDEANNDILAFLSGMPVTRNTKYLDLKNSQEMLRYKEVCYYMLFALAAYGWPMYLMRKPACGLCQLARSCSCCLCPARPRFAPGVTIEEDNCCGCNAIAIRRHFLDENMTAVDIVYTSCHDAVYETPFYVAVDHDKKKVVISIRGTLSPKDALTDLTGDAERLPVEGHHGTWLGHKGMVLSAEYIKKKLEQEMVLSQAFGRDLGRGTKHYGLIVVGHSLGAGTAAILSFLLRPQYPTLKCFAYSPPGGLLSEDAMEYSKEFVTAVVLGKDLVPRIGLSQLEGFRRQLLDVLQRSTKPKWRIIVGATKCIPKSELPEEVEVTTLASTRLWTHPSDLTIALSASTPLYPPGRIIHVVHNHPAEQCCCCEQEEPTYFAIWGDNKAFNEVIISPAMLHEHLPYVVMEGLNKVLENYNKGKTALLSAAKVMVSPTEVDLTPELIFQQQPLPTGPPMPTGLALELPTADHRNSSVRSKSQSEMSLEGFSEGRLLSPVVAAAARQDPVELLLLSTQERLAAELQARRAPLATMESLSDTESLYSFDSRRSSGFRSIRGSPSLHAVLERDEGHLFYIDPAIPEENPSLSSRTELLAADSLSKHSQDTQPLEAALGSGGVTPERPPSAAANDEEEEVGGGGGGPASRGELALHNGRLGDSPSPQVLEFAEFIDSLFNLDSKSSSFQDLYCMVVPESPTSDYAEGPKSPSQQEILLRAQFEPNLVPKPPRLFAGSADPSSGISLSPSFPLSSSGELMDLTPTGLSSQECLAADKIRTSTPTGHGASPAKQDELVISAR

`O=C(N1CCC=C[C@@H]1COCc1ccccc1)n1ncc(-c2ccc(OC(F)(F)F)cc2)n1` [Compound 107, (R)-(6-((benzyloxy)methyl)-3,6-dihydropyridin-1(2H)-yl)(4-(4-(trifluoromethoxy)phenyl)-2H-1,2,3-triazol-2-yl)methanone]: the inhibition at 0.0032 µM in assay [1] and in assay [2] was 0 to 25% in each case.
With `O=C(N1CCC=C[C@H]1COCc1ccccc1)n1cc(-c2ccc(OC(F)(F)F)cc2)nn1` [Compound 108, (S)-(6-((benzyloxy)methyl)-3,6-dihydropyridin-1(2H)-yl)(4-(4-(trifluoromethoxy)phenyl)-1H-1,2,3-triazol-1-yl)methanone], the inhibition at 0.0032 µM in assay [1] and in assay [2] was 0 to 25% in each case.
On to `O=C(N1CCC=C[C@H]1COCc1ccccc1)n1ncc(-c2ccc(OC(F)(F)F)cc2)n1` [Compound 109, (S)-(6-((benzyloxy)methyl)-3,6-dihydropyridin-1(2H)-yl)(4-(4-(trifluoromethoxy)phenyl)-2H-1,2,3-triazol-2-yl)methanone], for which the inhibition at 0.0032 µM in assay [1] and in assay [2] was 0 to 25% each time.
Consider `O=C(N1CCCCC1COc1ccccc1)n1cc(-c2ccc(OC(F)(F)F)cc2)nn1` (stereo not shown) [Compound 110, (2-(phenoxymethyl)piperidin-1-yl)(4-(4-(trifluoromethoxy)phenyl)-1H-1,2,3-triazol-1-yl)methanone], for which the inhibition at 0.0032 µM in assay [1] and in assay [2] was 0 to 25% throughout.
Regarding `O=C(N1CCCCC1COc1ccccc1)n1ncc(-c2ccc(OC(F)(F)F)cc2)n1` (stereo not shown) [Compound 111, (2-(phenoxymethyl)piperidin-1-yl)(4-(4-(trifluoromethoxy)phenyl)-2H-1,2,3-triazol-2-yl)methanone], the inhibition at 0.0032 µM in assay [1] and in assay [2] was 0 to 25% in each case.
As to `O=C(N1C[C@H](O)C=C[C@@H]1Cc1ccccc1)n1cc(-c2ccc(OC(F)(F)F)cc2)nn1` [Compound 112, ((3R,6S)-6-benzyl-3-hydroxy-3,6-dihydropyridin-1(2H)-yl)(4-(4-(trifluoromethoxy)phenyl)-1H-1,2,3-triazol-1-yl)methanone], the inhibition at 0.0032 µM in assay [1] and in assay [2] was 0 to 25% throughout.
On to `O=C(N1C[C@H](O)C=C[C@@H]1Cc1ccccc1)n1ncc(-c2ccc(OC(F)(F)F)cc2)n1` [Compound 113, ((3R,6S)-6-benzyl-3-hydroxy-3,6-dihydropyridin-1(2H)-yl)(4-(4-(trifluoromethoxy)phenyl)-2H-1,2,3-triazol-2-yl)methanone], for which the inhibition at 0.0032 µM in assay [1] and in assay [2] was 0 to 25% each time.
Turning to `O=C(N1C[C@@H](O)C=C[C@@H]1Cc1ccccc1)n1cc(-c2ccc(OC(F)(F)F)cc2)nn1` [Compound 114, ((3S,6S)-6-benzyl-3-hydroxy-3,6-dihydropyridin-1(2H)-yl)(4-(4-(trifluoromethoxy)phenyl)-1H-1,2,3-triazol-1-yl)methanone], the inhibition at 0.0032 µM in assay [1] and in assay [2] was 0 to 25% each time.
Regarding `O=C(N1C[C@@H](O)C=C[C@@H]1Cc1ccccc1)n1ncc(-c2ccc(OC(F)(F)F)cc2)n1` [Compound 115, ((3S,6S)-6-benzyl-3-hydroxy-3,6-dihydropyridin-1(2H)-yl)(4-(4-(trifluoromethoxy)phenyl)-2H-1,2,3-triazol-1-yl)methanone], the inhibition at 0.0032 µM in assay [1] and in assay [2] was 0 to 25% throughout.
Take `CO[C@@H]1CC[C@H](Cc2ccccc2)N(C(=O)n2cc(-c3ccc(OC(F)(F)F)cc3)nn2)C1` [Compound 116, ((2R,5R)-2-benzyl-5-methoxypiperidin-1-yl)(4-(4-(trifluoromethoxy)phenyl)-1H-1,2,3-triazol-1-yl)methanone]: the inhibition at 0.0032 µM is 25 to 50% in assay [1] and 0 to 25% in assay [2].
Take `CO[C@@H]1CC[C@H](Cc2ccccc2)N(C(=O)n2ncc(-c3ccc(OC(F)(F)F)cc3)n2)C1` [Compound 117, ((2R,5R)-2-benzyl-5-methoxypiperidin-1-yl)(4-(4-(trifluoromethoxy)phenyl)-2H-1,2,3-triazol-1-yl)methanone]: the inhibition at 0.0032 µM in assay [1] and in assay [2] was 0 to 25% each time.
For `CO[C@H]1CC[C@H](Cc2ccccc2)N(C(=O)n2cc(-c3ccc(OC(F)(F)F)cc3)nn2)C1` [Compound 118, ((2R,5S)-2-benzyl-5-methoxypiperidin-1-yl)(4-(4-(trifluoromethoxy)phenyl)-1H-1,2,3-triazol-1-yl)methanone], the inhibition at 0.0032 µM in assay [1] was in the range of 25 to 50%; in assay [2], 0 to 25%.
Taken in the same sequence, the figures for `CO[C@H]1CC[C@H](Cc2ccccc2)N(C(=O)n2ncc(-c3ccc(OC(F)(F)F)cc3)n2)C1` [Compound 119] were 0 to 25% and 0 to 25%.
For `O=C(N1C[C@H](OCC2CC2)CC[C@@H]1Cc1ccccc1)n1cc(-c2ccc(OC(F)(F)F)cc2)nn1` [Compound 120, ((2R,5R)-2-benzyl-5-(cyclopropylmethoxy)piperidin-1-yl)(4-(4-(trifluoromethoxy)phenyl)-1H-1,2,3-triazol-1-yl)methanone], the inhibition at 0.0032 µM in assay [1] was at least 75%; in assay [2] it was 25 to 50%.
In the case of `O=C(N1C[C@H](OCC2CC2)CC[C@@H]1Cc1ccccc1)n1ncc(-c2ccc(OC(F)(F)F)cc2)n1` [Compound 121], the inhibition at 0.0032 µM in assay [1] and in assay [2] was 0 to 25% in each case.
On to `CC(C)(C)CN(CCc1ccccc1)C(=O)n1cc(-c2ccc(OC(F)(F)F)cc2)nn1` [Compound 123, N-neopentyl-N-phenethyl-4-(4-(trifluoromethoxy)phenyl)-1H-1,2,3-triazole-1-carboxamide], for which the half-inhibitory concentration (IC50) in assay [1] and in assay [2] was at most 0.4 µM throughout.
For the molecule `O=C(N(CCc1ccccc1)C1CCC1)n1cc(-c2ccc(OC(F)(F)F)cc2)nn1` [Compound 124, N-cyclobutyl-N-phenethyl-4-(4-(trifluoromethoxy)phenyl)-1H-1,2,3-triazole-1-carboxamide], the IC50 in assay [1] and in assay [2] was at most 0.4 µM throughout.
For `O=C(N(CCc1ccccc1)C1CC1)n1cc(-c2ccc(OC(F)(F)F)cc2)nn1` [Compound 125, N-cyclopropyl-N-phenethyl-4-(4-(trifluoromethoxy)phenyl)-1H-1,2,3-triazole-1-carboxamide], the IC50 in assay [1] and in assay [2] was at most 0.4 µM each time.
As to `CC(C)(C)CN(CCc1ccccc1)C(=O)n1ncc(-c2ccc(OC(F)(F)F)cc2)n1` [Compound 127, N-neopentyl-N-phenethyl-4-(4-(trifluoromethoxy)phenyl)-2H-1,2,3-triazole-2-carboxamide], the 50% inhibitory concentration (IC50) in assay [1] was 2 to 10 µM; in assay [2], at most 0.4 µM.
The like results for `O=C(N(CCc1ccccc1)C1CCC1)n1ncc(-c2ccc(OC(F)(F)F)cc2)n1` [Compound 128, N-cyclobutyl-N-phenethyl-4-(4-(trifluoromethoxy)phenyl)-2H-1,2,3-triazole-2-carboxamide] were, in that order, 2 to 10 µM and 0.4 to 2 µM.
Taken in the same sequence, the figures for `O=C(N(CCc1ccccc1)C1CC1)n1ncc(-c2ccc(OC(F)(F)F)cc2)n1` [Compound 129, N-cyclopropyl-N-phenethyl-4-(4-(trifluoromethoxy)phenyl)-2H-1,2,3-triazole-2-carboxamide] were 2 to 10 µM and 0.4 to 2 µM.
Taken in the same sequence, the figures for `O=C(N(CCc1ccccc1)CC1CC1)n1cc(-c2ccc(OC(F)(F)F)cc2)nn1` [Compound 130, N-(cyclopropylmethyl)-N-phenethyl-4-(4-(trifluoromethoxy)phenyl)-1H-1,2,3-triazole-1-carboxamide] were at most 0.4 µM and at most 0.4 µM.
For the molecule `O=C(N(CCc1ccccc1)CC1CC1)n1ncc(-c2ccc(OC(F)(F)F)cc2)n1` [Compound 131, N-(cyclopropylmethyl)-N-phenethyl-4-(4-(trifluoromethoxy)phenyl)-2H-1,2,3-triazole-1-carboxamide], the half-maximal inhibitory concentration (IC50) in assay [1] lay in the range of 2 to 10 µM; in assay [2], 0.4 to 2 µM.
Consider `CC(C)(C)CN(CCc1ccncc1)C(=O)n1cc(-c2ccc(OC(F)(F)F)cc2)nn1` [Compound 132, N-neopentyl-N-(2-(pyridin-4-yl)ethyl)-4-(4-(trifluoromethoxy)phenyl)-1H-1,2,3-triazole-1-carboxamide], for which the IC50 in assay [1] and in assay [2] was at most 0.4 µM each time.
As for `CC(C)(C)CN(CCc1ccncc1)C(=O)n1ncc(-c2ccc(OC(F)(F)F)cc2)n1` [Compound 133, N-neopentyl-N-(2-(pyridin-4-yl)ethyl)-4-(4-(trifluoromethoxy)phenyl)-2H-1,2,3-triazole-1-carboxamide], the IC50 in assay [1] fell in the range of 2 to 10 µM; in assay [2], 0.4 to 2 µM.
The like results for `CC(C)(C)CN(CCc1cccnc1)C(=O)n1cc(-c2ccc(OC(F)(F)F)cc2)nn1` [Compound 134, N-neopentyl-N-(2-(pyridin-3-yl)ethyl)-4-(4-(trifluoromethoxy)phenyl)-1H-1,2,3-triazole-1-carboxamide] were, in that order, at most 0.4 µM and at most 0.4 µM.
Taken in the same sequence, the figures for `CC(C)(C)CN(CCc1cccnc1)C(=O)n1ncc(-c2ccc(OC(F)(F)F)cc2)n1` [Compound 135, N-neopentyl-N-(2-(pyridin-3-yl)ethyl)-4-(4-(trifluoromethoxy)phenyl)-2H-1,2,3-triazole-1-carboxamide] were 0.4 to 2 µM and 2 to 10 µM.
The like results for `CCC(CC)CN(CCc1cccnc1)C(=O)n1cc(-c2ccc(OC(F)(F)F)cc2)nn1` [Compound 136, N-(2-ethylbutyl)-N-(2-(pyridin-3-yl)ethyl)-4-(4-(trifluoromethoxy)phenyl)-1H-1,2,3-triazole-1-carboxamide] were, in that order, at most 0.4 µM and at most 0.4 µM.
On to `CCC(CC)CN(CCc1cccnc1)C(=O)n1ncc(-c2ccc(OC(F)(F)F)cc2)n1` [Compound 137], for which the IC50 in assay [1] and in assay [2] was 0.4 to 2 µM in each case.
